From patent US20250034182A1, “PHOSPHOLIPID COMPOUNDS AND METHODS OF MAKING AND USING THE SAME” (priority 2021, published 2025) come the findings set out here.

A value given as a limit tells only on which side of the number the result lay.

Holding throughout (type): cell-based
Data set [1] concerns Human Rhinovirus 14 (HRV14) in H1-HeLa cells. In words: H1-HeLa HRV-CTG EC50, HRV14 (Example Z). Particulars: Rhinovirus B, HRV14, 96 h, MOI 1.0, 4 days, Celltiter-Glo, read-out: HRV14 HELA EC50 (nM) (per Ex. Z). The source says: (§1) H1-Hela cell line (ATCC, Manassas, VA, Cat #CRL-1958) was maintained in Dulbecco's […] (DMEM) (Corning, New York, NY, Cat #15-018CM) supplemented with 10% fetal bovine serum (FBS) (Hyclone, Logan, UT, Cat #SH30071-03), and 1× Penicillin-Streptomycin-L-Glutamine (Coming, New York, NY, Cat #30-009-C1). Cells were passaged 2 times per week to maintain sub-confluent densities and were used for experiments at passage 5-30. The Human Rhinovirus 1B (HRV1B) (ATCC, Manassas, VA, Cat #VR-1645), Human Rhinovirus 14 (HRV14) (ATCC, Manassas, VA, Cat #VR-284), and Human Rhinovirus 16 (HRV16) (ATCC, Manassas, VA, Cat #BR-283) was obtained through ATCC. Viral infection was monitored by determining viability of H1-HeLa cells as described below.
(§2) Test molecules are prepared in 100% DMSO in 384-well polypropylene plates (Greiner, Monroe, NC, Cat #784201) with 8 compounds per plate in grouped replicates of 4 at 10 serially diluted concentrations (1:3). The serially diluted compounds were transferred to low dead volume Echo plates (Labcyte, Sunnyvale, CA, Cat #LP-0200).
(§3) The test compounds were spotted to 384-well assay plates (Greiner, Monroe, NC, Cat #781091) at 200 nL per well using an Echo acoustic dispenser (Labcyte, Sunnyvale, CA). H1-HeLa cells were harvested and suspended in DMEM (supplemented with 2% FBS and 1× Penicillin-Streptomycin-L-Glutamine) and seeded to the pre-spotted assay plates at 5,000 cells per well in 30 μL. HRV1B, HRV14, and HRV16 was diluted in DMEM (supplemented with 2% FBS and 1× Penicillin-Streptomycin-L-Glutamine) at 97.1 million Infectious Units (IU) per mL, 151 million IU per mL and 221 million IU per mL respectively. 10 μL of virus per well was added to the assay plates containing cells and compounds, for an MOI of 0.5, 1.0, and 0.25 respectively. The assay plates were incubated for 4 days at 37° C. and 5% CO2. At the end of incubation, Celltiter-Glo (Promega, Madison, WI, Cat #G7573) was prepared. The assay plates and Celltiter-Glo reagent were equilibrated to room temperature for at least 15 minutes. 40 μL per well of Celltiter-Glo reagent was added and the plates were incubated at room temperature for 15 minutes before reading the luminescence signal on an EnVision multimode plate reader (Perkin Elmer, Waltham, MA). Rupintrivir was used as positive control and DMSO was used as negative control. Values were normalized to the positive and negative controls (as 0% and 100% replication, respectively) and data was fitted using non-linear regression analysis by Gilead's dose response tool. The EC50 value for each compound was defined as the concentration reducing viral replication by 50%.

Data set [2] relates to Human Rhinovirus 16 (HRV16) in H1-HeLa cells. In words: H1-HeLa HRV-CTG EC50, HRV16 (Example Z). The settings on record: Rhinovirus A, HRV16, 96 h, MOI 0.25, 4 days, Celltiter-Glo, read-out: HRV 16 HELA EC50 (nM) (per Ex. Z).
Source text: as §1, §2, §3
(In ATP-based viability assays light output follows the ATP content of the culture.)

Data set [3] has as its system Human Rhinovirus 1B (HRV1B) in H1-HeLa cells. The data set can be described thus: H1-HeLa HRV-CTG EC50, HRV1B (Example Z). The settings on record: Rhinovirus A, 96 h, MOI 0.5, 4 days, Celltiter-Glo, read-out: HRV 1B HELA EC50 (nM) (per Ex. Z).
Source text: as §1, §2, §3

A short description of data set [4]: RSV NHBE CC50 384 V2 (per Ex. U). Particulars: human.
A short description of data set [5]: RSV HEP2-CC50-384-V2 (per Ex. V). The settings on record: human.

As to `CCCCCCCCCCCCCCCCCCC[C@H](COP(=O)(O)OC[C@@]1(C#N)O[C@@H](c2ccc3c(N)ncnn23)[C@H](O)[C@@H]1O)OCc1ccc(-n2cncn2)c(C#N)c1` [Compound 30, ((2R,3S,4R)-5-(4-aminopyrrolo[2,1-f][1,2,4]triazin-7-yl)-2-cyano-3,4-dihydroxytetrahydrofuran-2-yl)methyl ((R)-2-((3-cyano-4-(1H-1,2,4-triazol-1-yl)benzyl)oxy)henicosyl) hydrogen phosphate], the values for the EC50 in data set [1], in data set [2] and in data set [3] were 12 nM, 11 nM and 7 nM, respectively. For the same compound, the values for the CC50 at 3 days in data set [4] and in data set [5] were 1720 nM and 33100 nM, respectively.
Turning to `CCCCCCCCCCCCCCCCCCCC[C@H](COP(=O)(O)OC[C@@]1(C#N)O[C@@H](c2ccc3c(N)ncnn23)[C@H](O)[C@@H]1O)OCc1cc(F)cc(C#N)c1` [Compound 34, ((2R,3S,4R)-5-(4-aminopyrrolo[2,1-f][1,2,4]triazin-7-yl)-2-cyano-3,4-dihydroxytetrahydrofuran-2-yl)methyl ((R)-2-((3-cyano-5-fluorobenzyl)oxy)docosyl) hydrogen phosphate], the figures for the EC50 in data set [1], in data set [2] and in data set [3] were 276 nM, 316 nM and 281 nM, respectively. Besides, the figures for the CC50 at 3 days in data set [4] and in data set [5] were 7250 nM and over 43200 nM, respectively.
The like results for `CCCCCCCCCCCCCCCCCCC[C@H](COP(=O)(O)OC[C@@]1(C#N)O[C@@H](c2ccc3c(N)ncnn23)[C@H](O)[C@@H]1O)Oc1cc(OC)c(C#N)c(OC)c1` [Compound 39, ((2R,3S,4R,5S)-5-(4-aminopyrrolo[2,1-f][1,2,4]triazin-7-yl)-2-cyano-3,4-dihydroxytetrahydrofuran-2-yl)methyl ((R)-2-(4-cyano-3,5-dimethoxyphenoxy)henicosyl) hydrogen phosphate] were, in that order, 34 nM, 35 nM, 18 nM, 6460 nM and over 41400 nM.
The like results for `CCCCCCCCCCCCCCCCCCCC[C@@H](COP(=O)(O)OC[C@@]1(C#N)O[C@@H](c2ccc3c(N)ncnn23)[C@H](O)[C@@H]1O)OCc1cc(F)cc(C#N)c1` [Compound 70, ((2R,3S,4R)-5-(4-aminopyrrolo[2,1-f][1,2,4]triazin-7-yl)-2-cyano-3,4-dihydroxytetrahydrofuran-2-yl)methyl ((S)-2-((3-cyano-5-fluorobenzyl)oxy)docosyl) hydrogen phosphate] were, in that order, 162 nM, 114 nM, 84 nM, 3950 nM and 43500 nM.
The like results for `CCCCCCCCCCCCCCCCCCOC[C@@H](COP(=O)(O)OC[C@@]1(C#N)O[C@@H](c2ccc3c(N)ncnn23)[C@H](O)[C@@H]1O)Oc1ccc(C#N)nc1` [Compound 72, ((2R,3S,4R,5S)-5-(4-aminopyrrolo[2,1-f][1,2,4]triazin-7-yl)-2-cyano-3,4-dihydroxytetrahydrofuran-2-yl)methyl ((S)-2-((6-cyanopyridin-3-yl)oxy)-3-(octadecyloxy)propyl) hydrogen phosphate] were, in that order, 3 nM, 3 nM, 3 nM, 1610 nM and over 49900 nM.
On to `CCCCCCCCCCCCCCCCC[C@@H](COP(=O)(O)OC[C@@]1(C#N)O[C@@H](c2ccc3c(N)ncnn23)[C@H](O)[C@@H]1O)OCc1cc(F)cc(C#N)c1` [Compound 74, ((2R,3S,4R)-5-(4-aminopyrrolo[2,1-f][1,2,4]triazin-7-yl)-2-cyano-3,4-dihydroxytetrahydrofuran-2-yl)methyl ((S)-2-((3-cyano-5-fluorobenzyl)oxy)nonadecyl) hydrogen phosphate], for which the figures for the EC50 in data set [1], in data set [2] and in data set [3] were 67 nM, 49 nM and 24 nM, respectively. In addition, the results for the CC50 at 3 days in data set [4] and in data set [5] were 1540 nM and 28000 nM, respectively.
Take `CCCCCCCCCCCCCCCCC[C@H](COP(=O)(O)OC[C@@]1(C#N)O[C@@H](c2ccc3c(N)ncnn23)[C@H](O)[C@@H]1O)OCc1cc(Cl)cc(C#N)c1` [Compound 76, ((2R,3S,4R)-5-(4-aminopyrrolo[2,1-f][1,2,4]triazin-7-yl)-2-cyano-3,4-dihydroxytetrahydrofuran-2-yl)methyl ((R)-2-((3-chloro-5-cyanobenzyl)oxy)nonadecyl) hydrogen phosphate]: the results for the CC50 at 3 days in data set [4] and in data set [5] were 3550 nM and 33700 nM, respectively.
With `CCCCCCCCCCCCCCCC[C@H](COP(=O)(O)OC[C@@]1(C#N)O[C@@H](c2ccc3c(N)ncnn23)[C@H](O)[C@@H]1O)OCc1cc(F)cc(C#N)c1` [Compound 78, ((2R,3S,4R,5S)-5-(4-aminopyrrolo[2,1-f][1,2,4]triazin-7-yl)-2-cyano-3,4-dihydroxytetrahydrofuran-2-yl)methyl ((R)-2-((3-cyano-5-fluorobenzyl)oxy)octadecyl) hydrogen phosphate], the EC50 (commonly the concentration giving half of the maximal effect) was determined as 38 nM in data set [1], 66 nM in data set [2] and 24 nM in data set [3]. Further, the CC50 (as a rule, the concentration that lowers cell viability or growth by half) at 3 days in data set [4] came to 1200 nM; in data set [5], 34600 nM.
As for `CCCCCCCCCCCCCCCCCC[C@H](COP(=O)(O)OC[C@@]1(C#N)O[C@@H](c2ccc3c(N)ncnn23)[C@H](O)[C@@H]1O)OCc1cc(Cl)cc(C#N)c1` [Compound 81, ((2R,3S,4R,5S)-5-(4-aminopyrrolo[2,1-f][1,2,4]triazin-7-yl)-2-cyano-3,4-dihydroxytetrahydrofuran-2-yl)methyl ((R)-2-((3-chloro-5-cyanobenzyl)oxy)icosyl) hydrogen phosphate], the CC50 at 3 days in data set [4] came out at 2480 nM; in data set [5], 23000 nM.
In the case of `CCCCCCCCCCCCCCCCCCC[C@H](COP(=O)(O)OC[C@@]1(C#N)O[C@@H](c2ccc3c(N)ncnn23)[C@H](O)[C@@H]1O)OCc1cc(Cl)cc(C#N)c1` [Compound 82, ((2R,3S,4R,5S)-5-(4-aminopyrrolo[2,1-f][1,2,4]triazin-7-yl)-2-cyano-3,4-dihydroxytetrahydrofuran-2-yl)methyl ((R)-2-((3-chloro-5-cyanobenzyl)oxy)henicosyl) hydrogen phosphate], the CC50 at 3 days in data set [4] is 6120 nM; in data set [5] it was 29000 nM.
For `CCCCCCCCCCCCCCCCCC[C@H](COP(=O)(O)OC[C@@]1(C#N)O[C@@H](c2ccc3c(N)ncnn23)[C@H](O)[C@@H]1O)OCc1cc(F)cc(C#N)c1` [Compound 84, ((2R,3S,4R,5S)-5-(4-aminopyrrolo[2,1-f][1,2,4]triazin-7-yl)-2-cyano-3,4-dihydroxytetrahydrofuran-2-yl)methyl ((R)-2-((3-cyano-5-fluorobenzyl)oxy)icosyl) hydrogen phosphate], in that order: 24500 nM and over 50000 nM.
For `CCCCCCCCCCCCCCCCOC[C@@H](COP(=O)(O)OC[C@@]1(C#N)O[C@@H](c2ccc3c(N)ncnn23)[C@H](O)[C@@H]1O)OCc1cc(F)cc(C#N)c1` [Compound 88, ((2R,3S,4R,5S)-5-(4-aminopyrrolo[2,1-f][1,2,4]triazin-7-yl)-2-cyano-3,4-dihydroxytetrahydrofuran-2-yl)methyl ((S)-2-((3-cyano-5-fluorobenzyl)oxy)-3-(hexadecyloxy)propyl) hydrogen phosphate], the results for the CC50 at 3 days in data set [4] and in data set [5] were 7530 nM and 36600 nM, respectively.
